Tests used:
[1] = system: CHEAL = lambsquarter (Chenopodium album); test: General postemergence herbicidal activity, lambsquarter; type: in vivo; details: Chenopodium album, post-emergence, 336 h; post-emergent, 140 g ai/ha, visual score after 14 days (0 no injury, 100 complete kill)
Protocol: (§1) Seeds or nutlets of the desired test plant species were planted in Sun Gro MetroMix® 306 planting mixture, which typically has a pH of 6.0 to 6.8 and an organic matter content of about 30 percent, in plastic pots with a surface area of 64 square centimeters. When required to ensure good germination and healthy plants, a fungicide treatment and/or other chemical or physical treatment was applied. The plants were grown for 7-21 days in a greenhouse with an approximate 15 hour photoperiod which was maintained at about 23-29° C. during the day and 22-28° C. during the night. Nutrients and water were added on a regular basis and supplemental lighting was provided with overhead metal halide 1000-Watt lamps as necessary. The plants were employed for testing when they reached the first or second true leaf stage.
(§2) A weighed amount, determined by the highest rate to be tested, of each test compound was placed in a 25 mL glass vial and was dissolved in 4 mL of a 97:3 v/v (volume/volume) mixture of acetone and dimethyl sulfoxide (DMSO) to obtain concentrated stock solutions. […] The concentrated stock solutions obtained were diluted with 20 mL of an aqueous mixture containing acetone, water, isopropyl alcohol, DMSO, Atplus 411F crop oil concentrate, and Triton X-155 surfactant in a 48.5:39:10:1.5:1.0:0.02 v/v ratio to obtain spray solutions containing the highest application rates. Additional application rates were obtained by serial dilution of 12 mL of the high rate solution into a solution containing 2 mL of 97:3 v/v (volume/volume) mixture of acetone and dimethyl sulfoxide (DMSO) and 10 mL of an aqueous mixture containing acetone, water, isopropyl alcohol, DMSO, Atplus 411F crop oil concentrate, and Triton X-155 surfactant in a 48.5:39:10:1.5:1.0:0.02 v/v ratio to obtain ½×, ¼×, ⅛× and 1/16× rates of the high rate. Compound requirements are based upon a 12 mL application volume at a rate of 187 L/ha. Formulated compounds were applied to the plant material with an overhead Mandel track sprayer equipped with a 8002E nozzles calibrated to deliver 187 L/ha over an application area of 0.503 square meters at a spray height of 18 inches (43 cm) above the average plant canopy height. Control plants were sprayed in the same manner with the solvent blank.
(§3) The treated plants and control plants were placed in a greenhouse as described above and watered by sub-irrigation to prevent wash-off of the test compounds. After 14 days, the condition of the test plants as compared with that of the untreated plants was determined visually and scored on a scale of 0 to 100 percent where 0 corresponds to no injury and 100 corresponds to complete kill.
(§4) By applying the well-accepted probit analysis as described by J. Berkson in Journal of the […], 48, 565 (1953) and by D. Finney in “Probit Analysis” Cambridge University Press (1952), the above data can be used to calculate GR50 and GR80 values, which are defined as growth reduction factors that correspond to the effective dose of herbicide required to kill or control 50 percent or 80 percent, respectively, of a target plant.

[2] = system: ABUTH = velvetleaf (Abutilon theophrasti); test: General postemergence herbicidal activity, velvetleaf; type: in vivo; details: Abutilon theophrasti, post-emergence, 336 h; post-emergent, 140 g ai/ha, visual score after 14 days (0 no injury, 100 complete kill)
Protocol: as §1, §2, §3, §4

[3] = system: HELAN = sunflower (Helainthus annuus); test: General postemergence herbicidal activity, sunflower; type: in vivo; details: post-emergence, 336 h; post-emergent, 140 g ai/ha, visual score after 14 days (0 no injury, 100 complete kill)
Protocol: as §1, §2, §3, §4

[4] = system: CHEAL = lambsquarter (Chenopodium album); test: General preemergence herbicidal activity, lambsquarter; type: in vivo; details: Chenopodium album, pre-emergence, 480 h; pre-emergent, 140 g ai/ha, visual score after 20-22 days
Excerpt: (§5) Seeds of the desired test plant species were planted in a soil matrix prepared by mixing a loam soil (43 percent silt, 19 percent clay, and 38 percent sand, with a pH of about 8.1 and an organic matter content of about 1.5 percent) and sand in a 70 to 30 ratio. The soil matrix was contained in plastic pots with a surface area of 113 square centimeters. When required to ensure good germination and healthy plants, a fungicide treatment and/or other chemical or physical treatment was applied. A weighed amount, determined by the highest rate to be tested, of each test compound was placed in a 25 mL glass vial and was dissolved in 6 mL of a 97:3 v/v (volume/volume) mixture of acetone and DMSO to obtain concentrated stock solutions. […] The stock solutions obtained were diluted with 18 mL of a 0.1% v/v aqueous solution of Tween® 20 surfactant to obtain spray solutions containing the highest application rate. Additional application rates were obtained by serial dilution of 12 mL of the high rate solution into a solution containing 3 mL of 97:3 v/v mixture of acetone and DMSO and 9 mL of the 0.1% v/v aqueous solution of Tween® 20 surfactant to obtain 1⁄2×, 1⁄4×, 1⁄8× and 1/16× rates of the high rate. Compound requirements are based upon a 12 mL application volume at a rate of 187 L/ha. Formulated compounds were applied to the plant material with an overhead Mandel track sprayer equipped with a […] nozzles calibrated to deliver 187 L/ha over an application area of 0.503 square meters at a spray height of 18 inches (43 cm) above the soil surface. Control plants were sprayed in the same manner with the solvent blank. The treated pots and control pots were placed in a greenhouse maintained with an approximate 15 hour photoperiod and temperatures of about 23-29° C. during the day and 22-28° C. during the night. Nutrients and water were added on a regular basis and supplemental lighting was provided with overhead metal halide 1000-Watt lamps as necessary. The water was added by top-irrigation. After 20-22 days, the condition of the test plants that germinated and grew as compared with that of the untreated plants that emerged and grew was determined visually and scored on a scale of 0 to 100 percent where 0 corresponds to no injury and 100 corresponds to complete kill or no emergence.

[5] = system: ABUTH = velvetleaf (Abutilon theophrasti); test: General preemergence herbicidal activity, velvetleaf; type: in vivo; details: Abutilon theophrasti, pre-emergence, 480 h; pre-emergent, 140 g ai/ha, visual score after 20-22 days
Excerpt: as §5

[6] = system: HELAN = sunflower (Helianthus annuus); test: General preemergence herbicidal activity, sunflower; type: in vivo; details: Helianthus annuus, pre-emergence, 480 h; pre-emergent, 140 g ai/ha, visual score after 20-22 days
Excerpt: as §5

Question: With `COc1c(Cl)ccc(-c2nc(N)c(Cl)c(C(=O)O)n2)c1F` [Compound 15, 6-amino-5-chloro-2-(4-chloro-2-fluoro-3-methoxyphenyl)-pyrimidine-4-carboxylic acid] as the molecule, how does the pest or weed control at 140 g/ha [1] read?
Answer: Its pest or weed control at 140 g/ha is 100%.

Question: And the pest or weed control at 140 g/ha [2]?
Answer: Its pest or weed control at 140 g/ha is 100%.

Question: And the pest or weed control at 140 g/ha [3]?
Answer: The pest or weed control at 140 g/ha was 100%.

Question: And the pest or weed control at 140 g/ha [4]?
Answer: The pest or weed control at 140 g/ha was 100%.

Question: And the pest or weed control at 140 g/ha [5]?
Answer: Its pest or weed control at 140 g/ha is 100%.

Question: What about the pest or weed control at 140 g/ha [6] of the same molecule?
Answer: The pest or weed control at 140 g/ha was 100%.

Question: What about the melting point of the same molecule?
Answer: The melting point was 172 to 173 °C.
